Test results reported in patent US5328834A, “Method for preparing immunoglobulin fragments” (UniSyn Technologies, Inc., priority 1989, dated 1994).
*1 amine or outer side, *2 acyl side, *3 side chain or, on linkers, in order; H or OH if unused. Where a SMILES comes first, the peptide text is derived from it. CO = O=C([*:1])[*:2]

T1: papain (Carica papaya, UniProt P00784)
T1 construct: purchased Sigma Chemical Company (St. Louis, Mo.)
T1 sequence (P00784 134-345): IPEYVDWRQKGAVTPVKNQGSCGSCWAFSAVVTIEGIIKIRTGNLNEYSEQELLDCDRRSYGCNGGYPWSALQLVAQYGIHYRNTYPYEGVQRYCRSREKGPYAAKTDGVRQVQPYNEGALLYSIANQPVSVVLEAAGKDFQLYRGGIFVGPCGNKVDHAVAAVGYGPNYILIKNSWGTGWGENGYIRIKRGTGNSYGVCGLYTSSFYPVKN


Experiments:
papain = biological target: T1, papain; assay: Inhibition of papain esterolytic activity by antipain and leupeptin (BAEE substrate, pH stat); type: biochemical; conditions: for effect of the presence of IgG substrate on inhibitory activity: 10 mg of human IgG present; for time to inhibit 100% of papain activity: inhibitor 0.4 mg/ml; for Time: time to the stated inhibition
Experimental: (§1) Papain activity was assayed using N-benzoyl-L-arginine ethyl ester in a pH stat and pepsin activity using hemoglobin substrate, according to the procedures given in the Worthington Enzyme Manual.
The ability of antipain and leupeptin to modify papain activity was checked with enzyme, both in the absence and in the presence of immunoglobulin substrate. A 0.5 mg aliquot of active papain was made up in the presence and in the absence of 10 mg of human IgG in 0.025M sodium phosphate buffer containing 10 mM EDTA and 50 mM cysteine (pH 6.2). To each sample, different amounts of either antipain or leupeptin were added and then incubated at 23° C. for 5 minutes. An aliquot of this enzyme was diluted in the same buffer and assayed for papain activity using BAEE as the substrate in the pH stat.

avidin-agarose = assay: Binding of biotinylated papain to avidin-agarose column; conditions: 0.5 mg through a 1 ml column, pH 8.5 buffer
Excerpt: The column was eluted with a pH 8.5 buffer and the absorbance of the eluting fractions were monitored at 280 nm.

human IgG = assay: Digestion of IgG to F(ab) by papain; type: biochemical
Experimental: Typically, 10 mg of IgG in the papain digestion buffer (0,025M sodium phosphate, 10 mM EDTA, 50 mM cysteine, pH 6.2) was added to either 0.5 ml of activated immobilized papain (0.5 mg equivalent of free papain) or 0.5 mg of activated soluble papain in the digestion buffer. The proteolytic cleavage was carried out for various time intervals at 37° C. At the end of each incubation period, the immobilized papain sample was centrifuged to remove the protease and the supernatant transferred to another tube containing 0.5 ml of pH 8.5 buffer. The gel was washed once with 1 ml of pH 8.5 buffer and supernatants combined. In the case of soluble papain, 0.4 mg of antipain or leupeptin in water was added to inactivate the papain and the mixture diluted with 0.5 ml of pH 8.5 buffer.
The separation of inactivated papain from the rest of mixture was carried by one of two methods. According to one procedure, an excess of anti-papain IgG (3 mg) was added to complex with the inactivated papain and the Fab fragments were separated from the rest of the mixture by passing through a 1 ml protein A cartridge equilibrated with pH 8.5 buffer. This procedure removed both the protease and its antibody in the form of antigen-antibody complexes. The column was eluted with 5 ml of pH 8.5 buffer to collect the F(ab) fragments and the absorbance of the various fractions was read at 280 nm. In an alternative procedure, the reaction mixture was first passed through an immobilized column of antipapain IgG to remove the inactivated papain and then passed through a 1 ml protein A cartridge equilibrated with pH 8.5 buffer. The Fc and the undigested immunoglobulins were eluted from the protein A cartridge with an elution buffer (pH 3.5).
After 30 minutes incubation at 37° C., 0.4 mg of antipain was added to inactivate the enzyme and then 0.5 ml of pH 8.5 buffer added to the mixture. […] The effluent was passed through a protein A column to adsorb the Fc and the undigested IgG. The F(ab) fragments came out unabsorbed from the protein A column. […]

[1] = Papain activity assay using N-benzoyl-L-arginine ethyl ester in a pH stat; type: biochemical; conditions: BAEE substrate
Experimental: as §1

[2] = read-out: inhibition of papain activity
[3] = PAPAIN (0.5 mg) + IgG (10 mg), inhibitor 0.4 mg
[4] = PAPAIN (0.5 mg), inhibitor 0.2 mg
[5] = PAPAIN (0.5 mg), inhibitor 0.4 mg

Row | Molecule | effect of the presence of IgG substrate on inhibitory activity (papain) | time to achieve 100% inhibition of papain activity (papain; inhibitor 0.05 mg/ml) [min] | time to inhibit 100% of papain activity (papain) [min] | inhibition at 50 µg/mL (papain; [2]) [%] | inhibition at 400 µg/mL (papain; [2]) [%] | Time (papain; PAPAIN (0.5 mg) + IgG (10 mg), inhibitor 0.05 mg) [min] | Time (papain; PAPAIN (0.5 mg) + IgG (10 mg), inhibitor 0.1 mg) [min] | Time (papain; [3]) [min] | Time (papain; PAPAIN (0.5 mg), inhibitor 0.05 mg) [min] | Time (papain; PAPAIN (0.5 mg), inhibitor 0.1 mg) [min] | Time (papain; [4]) [min] | Time (papain; [5]) [min] | Time (papain; PAPAIN (0.5 mg) + IgG (10 mg), inhibitor 0.2 mg) [min] | % Binding to Avidin-Agarose (avidin-agarose) [%] | % Fab Generated (human IgG; 10 mg IgG, 0.5 mg enzyme, 37° C., 30 minutes) [%] | amount of F(ab) obtained relative to the immobilized form of the enzyme (human IgG; first 30 minutes) | digestion of the total IgG added to F(ab) (human IgG; human IgG, within the first 30 minutes, 37° C.) [%] | Activity (Unit/mg) [1] [Unit/mg]
1 | CC(C)[C@H](NC(=O)[C@H](CCCNC(=N)N)NC(=O)N[C@@H](Cc1ccccc1)C(=O)O)C(=O)N[C@H](C=O)CCCNC(=N)N [ANTIPAIN, Antipain] ({Phe-CO}-Arg-Val-Arg-aldehyde) | did not affect | ≤ 15 | ≤ 1 | 100 | 100 | 15 | 4 | 1 | 15 | 4 | 1 | 1 | – | – | – | – | – | –
2 | CC(=O)N[C@@H](CC(C)C)C(=O)N[C@@H](CC(C)C)C(=O)N[C@H](C=O)CCCNC(=N)N [LEUPEPTIN, Leupeptin] | did not affect | – | ≤ 1 | – | 100 | – | – | < 1 | – | – | < 1 | < 1 | < 1 | – | – | – | – | –
3 | Papain: soluble protease from Sigma used to digest IgG to F(ab) (protein, UniProt P00784 134-345, looked up) Papain: IPEYVDWRQKGAVTPVKNQGSCGSCWAFSAVVTIEGIIKIRTGNLNEYSEQELLDCDRRSYGCNGGYPWSALQLVAQYGIHYRNTYPYEGVQRYCRSREKGPYAAKTDGVRQVQPYNEGALLYSIANQPVSVVLEAAGKDFQLYRGGIFVGPCGNKVDHAVAAVGYGPNYILIKNSWGTGWGENGYIRIKRGTGNSYGVCGLYTSSFYPVKN | – | – | – | – | – | – | – | – | – | – | – | – | – | 0 | 75 | double | 75 | 7.8
